Reference: ChEMBL document CHEMBL1201862, “PubChem BioAssay data set” (2004)
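Results reflect a 48-hour exposure of cells in 96-well plates to compound at five concentrations. GI50 is the concentration that inhibits growth by half.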 Activity calls are given as the source filed them. Rule as the data show it: active = GI50 up to about 1.1 µM and inactive = higher.

What was measured:
Test in all cases: NCI anticancer screen, dose series, 48 h
K562 = system: K562
HCT-116 = system: HCT-116
HOP-18 = system: HOP-18
NCI-H23 = system: NCI-H23
XF498 = system: XF498
SF-539 = system: SF-539
OVCAR-5 = system: OVCAR-5
SN12C = system: SN12C
DLD-1 = system: DLD-1
TK-10 = system: TK-10
SF-295 = system: SF-295
DMS-114 = system: DMS-114
EKVX = system: EKVX
NCI-H226 = system: NCI-H226
OVCAR-4 = system: OVCAR-4
RPMI-8226 = system: RPMI-8226
KM-20L2 = system: KM-20L2
CCRF-CEM = system: CCRF-CEM
SK-MEL-28 = system: SK-MEL-28
SW-620 = system: SW-620
HT-29 = system: HT-29
HL-60 = system: HL-60
IGROV-1 = system: IGROV-1
A498 = system: A498
RXF 631 = system: RXF 631
SR = system: SR
A549 = system: A549
Malme-3M = system: Malme-3M
SNB-75 = system: SNB-75
MOLT-4 = system: MOLT-4
HCT-15 = system: HCT-15
SK-MEL-2 = system: SK-MEL-2
HOP-92 = system: HOP-92
OVCAR-8 = system: OVCAR-8
LXFL 529 = system: LXFL 529
LOX IMVI = system: LOX IMVI
ACHN = system: ACHN
CAKI-1 = system: CAKI-1
SNB-19 = system: SNB-19
SK-MEL-5 = system: SK-MEL-5
UACC-257 = system: UACC-257
NCI-H460 = system: NCI-H460
RXF 393 = system: RXF 393
KM12 = system: KM12
SF-268 = system: SF-268
U-251 = system: U-251
HCC 2998 = system: HCC 2998
SNB-78 = system: SNB-78
DMS-273 = system: DMS-273
M14 = system: M14
COLO 205 = system: COLO 205
UO-31 = system: UO-31
SK-OV-3 = system: SK-OV-3
OVCAR-3 = system: OVCAR-3
M19-MEL = system: M19-MEL
HOP-62 = system: HOP-62
NCI-H522 = system: NCI-H522

CSc1cc(-c2cc3ccccc3o2)oc(=O)c1C#N
GI50 (K562): > 100 µM (inactive) | GI50 (HCT-116): > 100 µM (inactive) | GI50 (HOP-18): 0.637 µM (active) | GI50 (NCI-H23): > 100 µM (inactive) | GI50 (XF498): 5.83 µM (inactive) | GI50 (SF-539): > 100 µM (inactive) | GI50 (OVCAR-5): 12.2 µM (inactive) | GI50 (SN12C): > 100 µM (inactive) | GI50 (DLD-1): > 100 µM (inactive) | GI50 (TK-10): 21.8 µM (inactive) | GI50 (SF-295): 40.9 µM (inactive) | GI50 (DMS-114): 7.43 µM (inactive) | GI50 (EKVX): > 100 µM (inactive) | GI50 (NCI-H226): 0.165 µM (active) | GI50 (OVCAR-4): > 100 µM (inactive) | GI50 (RPMI-8226): 27.7 µM (inactive) | GI50 (KM-20L2): > 100 µM (inactive) | GI50 (CCRF-CEM): > 100 µM (inactive) | GI50 (SK-MEL-28): > 100 µM (inactive) | GI50 (SW-620): > 100 µM (inactive) | GI50 (HT-29): > 100 µM (inactive) | GI50 (HL-60): 18.9 µM (inactive) | GI50 (IGROV-1): 7.4 µM (inactive) | GI50 (A498): > 100 µM (inactive) | GI50 (RXF 631): 64.7 µM (inactive) | GI50 (SR): 15.5 µM (inactive) | GI50 (A549): > 100 µM (inactive) | GI50 (Malme-3M): 3.6 µM (inactive) | GI50 (SNB-75): 16.3 µM (inactive) | GI50 (MOLT-4): > 100 µM (inactive) | GI50 (HCT-15): > 100 µM | GI50 (SK-MEL-2): > 100 µM (inactive) | GI50 (HOP-92): 0.301 µM (active) | GI50 (OVCAR-8): > 100 µM (inactive) | GI50 (LXFL 529): > 100 µM (inactive) | GI50 (LOX IMVI): > 100 µM (inactive) | GI50 (ACHN): > 100 µM (inactive) | GI50 (CAKI-1): 8.13 µM (inactive) | GI50 (SNB-19): 68.9 µM (inactive) | GI50 (SK-MEL-5): > 100 µM (inactive) | GI50 (UACC-257): > 100 µM (inactive) | GI50 (NCI-H460): > 100 µM (inactive) | GI50 (RXF 393): 71.4 µM (inactive) | GI50 (KM12): > 100 µM (inactive) | GI50 (SF-268): > 100 µM (inactive) | GI50 (U-251): > 100 µM (inactive) | GI50 (HCC 2998): > 100 µM (inactive) | GI50 (SNB-78): 88.1 µM (inactive) | GI50 (DMS-273): > 100 µM (inactive) | GI50 (M14): > 100 µM (inactive) | GI50 (COLO 205): > 100 µM (inactive) | GI50 (UO-31): 37.5 µM (inactive)

COc1cc2c(c(OC)c1OC)-c1ccc(SC)c(=O)cc1C(CC(=O)Oc1ccc([N+](=O)[O-])cc1)C2 (stereo not given)
GI50 (K562): < 0.0444 µM (active) | GI50 (HOP-18): > 33.5 µM (inactive) | GI50 (NCI-H23): 0.132 µM (active) | GI50 (XF498): 0.0873 µM (active) | GI50 (OVCAR-5): 6.1 µM (inactive) | GI50 (TK-10): 4.8 µM (inactive) | GI50 (DMS-114): 0.0902 µM (active) | GI50 (EKVX): 7.29 µM (inactive) | GI50 (NCI-H226): 0.128 µM (active) | GI50 (OVCAR-4): 3.85 µM (inactive) | GI50 (KM-20L2): 0.0476 µM (active) | GI50 (CCRF-CEM): 0.0792 µM (active) | GI50 (SK-MEL-28): 0.19 µM (active) | GI50 (HL-60): 0.226 µM (active) | GI50 (IGROV-1): 0.344 µM (active) | GI50 (A498): 0.0469 µM (active) | GI50 (SK-OV-3): 0.0207 µM (active) | GI50 (RXF 631): < 0.01 µM (active) | GI50 (OVCAR-3): 0.0538 µM (active) | GI50 (A549): 0.123 µM (active) | GI50 (SNB-75): 0.286 µM (active) | GI50 (MOLT-4): 0.113 µM (active) | GI50 (HCT-15): 0.78 µM | GI50 (SK-MEL-2): 0.336 µM (active) | GI50 (HOP-92): 0.762 µM (active) | GI50 (M19-MEL): 0.18 µM (active) | GI50 (HOP-62): 4.44 µM (inactive) | GI50 (CAKI-1): 0.207 µM (active) | GI50 (SNB-19): 1.34 µM (inactive) | GI50 (SK-MEL-5): 0.0726 µM (active) | GI50 (UACC-257): 0.486 µM (active) | GI50 (RXF 393): 0.0331 µM (active) | GI50 (SF-268): 0.137 µM (active) | GI50 (NCI-H522): 0.0551 µM (active) | GI50 (HCC 2998): 0.119 µM (active) | GI50 (SNB-78): 0.044 µM (active) | GI50 (M14): 0.0607 µM (active) | GI50 (UO-31): 1.95 µM (inactive)
